Results reported in publication PMC7804859, “A metabolically stable apelin-17 analog decreases AVP-induced antidiuresis and improves hyponatremia” (Nature Communications, 2021).
Values joined by “and” are separate entries in the source; they are usually repeats but may differ in a detail not shown here. Equal entries are not always repeated.

Assays:
[1] = tested on: normonatremic Sprague-Dawley rats; experiment: Effects of s.c. administration on metabolic parameters in normonatremic rats; format: in vivo, rat
in vivo = conditions: mice, 30 min after s.c. 900 nmol/kg
Description: 187 Apelin radioimmunoassay
188 Plasma samples (0.5 ml) were acidified with 0.175 ml of 3 mol/l HCl and stored at -80°C
189 until use for apelin RIA. Before thawing the sample on ice, 0.05% BSA was added, and the
190 samples were centrifuged at 20000 x g at 4°C for 10 min. The supernatants were collected and
191 the pH was adjusted to 6.5 with 10 mol/l NaOH and 2 mol/l Tris-HCl buffer (pH 7.4). Apelin
192 was extracted from plasma by mixing the supernatant with 0.3 ml of 0.1% BSA in H2O and 1
193 ml of 1% trifluoroacetic acid (TFA) - 0.1% BSA, and running the mixture on a Sep-Pak C18
194 cartridge (Waters) previously washed with 2 ml 100% acetonitrile and equilibrated with 5 ml
195 1% TFA - 0.1% BSA. The columns then were washed with 3 ml 1% TFA - 0.1% BSA and
196 apelin was eluted with 1.5 ml 100% acetonitrile. […]
208 Plasma or brain apelin levels w ere deter mined by RIA. Samples (0.1ml) w ere mixed with 125I-
211 dilution: 1/4500) to give a total volume of 0.2 ml and were incubated at 4°C overnight. We
212 used this radioligand instead of [Glp65, Nle75, Tyr77] [125I]-apelin13 since the substitution of
214 derivatives as described previously by 3,4.
215 We then added 0.5 ml of Amerlex (Amersham RPN 510), and the resulting mixture was
216 incubated for 10 min at room temperature. The tubes were centrifuged at 2600 x g at 4°C for
217 20 min. The supernatant was removed and the radioactivity of the precipitates was measured. […]

[2] = tested on: alert Sprague-Dawley rats; experiment: Mean arterial blood pressure in alert rats; format: in vivo, rat; set-up: SBP_Baseline / SBP_3h / SBP_24h: unit not given here
Description: 291 Blood pressure measurements
292 Rats were implanted with a right femoral artery catheter which was passed beneath the skin
293 under isoflurane anesthesia. Blood pressure (BP) was recorded in male alert Sprague Dawley
294 rats after a recovery period of at least 24 hours, with a PowerLab/Labchart system
295 (ADInstruments, Dunedin, New Zealand) connected to the arterial catheter via a pressure
296 transducer. Mean arterial BP (MABP) was calculated from the arterial pressure signal as
297 previously described 7. The compound was administered s.c. after baseline BP recording for at
298 least 30 minutes. BP was then measured at 3 and 24 hours after administration. At the end of
299 the experiment, animals were killed with a lethal dose of pentobarbital (Dolethal ®, 150

[3] = tested on: rat outer medullary collecting ducts (OMCDs); experiment: dDAVP-induced cAMP production in microdissected rat outer medullary collecting ducts; format: cell-based
Description: The left kidney of male rats was prepared for nephron microdissection, as previously described[51]. Pieces of OMCDs were isolated under a stereomicroscope.
Then cells were treated with 10
180 37°C. Then the media was removed and 100 µl of lysis buffer (Cisbio Bioassays, Codolet,
181 France) was added to Transwell filter and plate was incubated at 20°C for 2 hours. Cell
183 384-well plates (Perkin Elmer) according to manufacturer’s instructions (Cisbio Bioassays,
184 Codolet, France). Cyclic AMP levels were measured in microdissected OMCDs by the same
Results are expressed in femtomoles of cAMP produced
186 per mm tubular length and per 10 min incubation time at 37°C.

mpkCCD cells = experiment: Forskolin-induced cAMP production in mpkCCD cells; format: cell-based, mouse
Description: 152 Supplementary Methods
154 We quantified cAMP production with the cAMP dynamic 2 assay kit (Cisbio Bioassays,
155 Codolet, France), which is based on homogeneous time-resolved fluorescence (HTRF)
156 technology, as previously described 1. For cells expressing the Apelin-R, 2000 CHO cells/well
157 stably expressing rat apelinR-EGFP (clone B70) were added to the 384-well plate and
158 stimulated with 5 µmol/l forskolin (FSK) and various concentrations (0.01 pmol/l to 100
For cells expressing the V2-R, HEK-
160 293T cells were transiently transfected with the human V2-R (cDNA Resource Center), after
161 48h, 4000 cells/well were added to white 384-well optiplates and stimulated either with 5
Cells were then lysed, and
165 cAMP levels were determined in accordance with the kit manufacturer’s instructions.
166 Stimulation was performed in stimulation buffer-IBMX (SBI) (Hank’s balanced salt solution
167 (HBSS-Life Technology), 5 mmol/l Hepes, 0.1% BSA stabilizer (Perkin Elmer), 1 mmol/l
168 isobutylmethylxanthine (IBMX, Sigma Aldrich, pH 7.4)). For cAMP assay with mpkCCD
169 cells, the cells were grown on 12 mm Transwell filters (0.4 μm pore size, Corning Costar,
170 Cambridge, MA) until they reach confluency (4-5 days). For forskolin experiments, culture
171 media was replaced with SBI in apical and basolateral compartments. After 30 min of […]

[4] = 900 nmol/kg SC (tolvaptan 0.4.SC [sic]), normonatremic rats, single animals

CSCC[C@H](NC(=O)[C@@H]1CCCN1C(=O)CNC(=O)[C@H](CCCCN)NC(=O)[C@H](Cc1c[nH]cn1)NC(=O)[C@H](CO)NC(=O)[C@H](CC(C)C)NC(=O)[C@H](CCCNC(=N)N)NC(=O)[C@@H]1CCCN1C(=O)[C@H](CCCNC(=N)N)NC(=O)[C@H](CCC(N)=O)NC(=O)[C@H](CCCNC(=N)N)NC(=O)[C@H](CCCNC(=N)N)NC(=O)[C@H](Cc1ccccc1)NC(=O)[C@H](CCCCN)NC(=O)CCC(F)(F)C(F)(F)C(F)(F)C(F)(F)C(F)(F)C(F)(F)C(F)(F)C(F)(F)F)C(=O)N1CCC[C@H]1C(=O)N[C@@H](Cc1ccccc1)C(=O)O [LIT01-196]
Urine osmolality (3 hours) [1, 4]: 1384 and 748 and 940 and 740 and 756 and 732 | Urine osmolality (6 hours) [1, 4]: 356 and 1028 and 440 and 1112 and 752 and 680 | Urine osmolality (24 hours) [1, 4]: 1095 and 2308 and 2437 and 1605 and 969 and 1304 and 1184 and 540 and 808 and 632 and 904 and 972 and 1020 and 1112 and 960 and 572 and 760 and 772 and 928 and 708 and 1220 and 1508 | body weight change (weight loss) ([1]; 900 nmol/kg s.c., 24 h): −1.8% | increase in water intake ([1]; 900 nmol/kg s.c., 24 h): 11% | increase in water intake to food intake ratio ([1]; 900 nmol/kg s.c., 24 h): 50% | increase in free water excretion fraction ([1]; 900 nmol/kg s.c., 24 h, n = 6): 86% | decrease in food (normal chow) intake ([1]; 900 nmol/kg s.c., 24 h, non-significant): 20% | increase in 24-h urine output relative to saline ([1]; 900 nmol/kg s.c., normonatremic rats): 79% | decrease in urine osmolality ([1]; 900 nmol/kg s.c., normonatremic rats, 24 h): 52% | Water excretion fraction ([1]; LIT01-196 900 nmol/kg SC, individual animals (Fig. S4C source data)): 0.8192 and 1.335 and 0.9524 and 0.95 and 0.8692 and 1.016 | Sodium excretion fraction ([1]; LIT01-196 900 nmol/kg SC, individual animals (Fig. S4D source data)): 0.6321 and 0.5196 and 0.512 and 0.526 and 0.4023 and 0.292 | Sodium excretion fraction ([1]; LIT01-196 900 nmol/kg, tolvaptan 6700 nmol/kg s.c., 24 h): not changed | Water to food ratio ([1]; normonatremic rats, 900 nmol/kg SC, individual animal values (source data Fig. 4L)): 1.9011 and 2.746 and 2.674 and 1.755 and 1.9235 and 1.556 and 1.545 | plasma apelin-IR levels, times basal levels (in vivo): 9.7 times | plasma apelin-IR levels (in vivo; basal 1.3 ± 0.073, n = 5): 12.4 ± 2.5 pmol/mL | SBP_3h ([2]; 900 nmol/kg SC, 3h, individual animals (Fig. S5A source data)): 100.529 and 94.7199 and 92.7855 and 89.7756 and 91.9306 | SBP_24h ([2]; 900 nmol/kg SC, 24h, individual animals (Fig. S5A source data)): 122.566 and 101.322 and 101.468 and 97.9055 | SBP_Baseline ([2]; 900 nmol/kg SC, baseline, individual animals (Fig. S5A source data)): 113.98 and 106.154 and 101.631 and 106.857 and 101.074 | MABP 24 h after administration ([2]; 900 nmol/kg s.c., alert rats): did not significantly differ from baseline | mean arterial blood pressure (MABP) 3 h after administration ([2]; 900 nmol/kg s.c., alert rats, n = 5, baseline 106 ± 2, p = 0.063): 94 ± 2 mmHg | inhibition of dDAVP-induced cAMP production in OMCDs ([3]; co-application with dDAVP 0.1 nmol/l, increasing concentrations 50 nmol/l to 50 µmol/l): 41% | cAMP production, value (Fig 2E) ([3]; peptide 5.10-5M, experiment 1): 50 | cAMP production, value (Fig 2E) ([3]; peptide 5.10-5M, experiment 2): 47 | cAMP production, value (Fig 2E) ([3]; peptide 5.10-5M, experiment 3): 56 | cAMP production, value (Fig 2E) ([3]; peptide 5.10-5M, experiment 4): 50 | cAMP production, value (Fig 2E) ([3]; peptide 5.10-5M, experiment 5): 48 | cAMP production, value (Fig 2E) ([3]; peptide 5.10-5M, experiment 6): 49 | cAMP production, value (Fig 2E) ([3]; peptide 5.10-7M, experiment 1): 55 | cAMP production, value (Fig 2E) ([3]; peptide 5.10-7M, experiment 2): 58 | cAMP production, value (Fig 2E) ([3]; peptide 5.10-7M, experiment 3): 52 | cAMP production, value (Fig 2E) ([3]; peptide 5.10-7M, experiment 4): 54 | cAMP production, value (Fig 2E) ([3]; peptide 5.10-7M, experiment 5): 56 | cAMP production, value (Fig 2E) ([3]; peptide 5.10-7M, experiment 6): 53 | cAMP production, value (Fig 2E) ([3]; peptide 5.10-8M, experiment 1): 85 | cAMP production, value (Fig 2E) ([3]; peptide 5.10-8M, experiment 2): 87 | cAMP production, value (Fig 2E) ([3]; peptide 5.10-8M, experiment 3): 90 | cAMP production, value (Fig 2E) ([3]; peptide 5.10-8M, experiment 4): 83 | cAMP production, value (Fig 2E) ([3]; peptide 5.10-8M, experiment 5): 88 | cAMP production, value (Fig 2E) ([3]; peptide 5.10-8M, experiment 6): 81 | inhibition of cAMP production induced by forskolin (mpkCCD cells; 1 µmol/l compound, forskolin 1 µmol/l, mpkCCD cells, 30 min 37 °C): 32% | Forskolin-induced cAMP production, value (Fig 2C) (mpkCCD cells; Forskolin + peptide, single measurements): 89
